Assay results taken from PMC9576955, “Daidzein is the in vivo active compound of Puerariae Lobatae Radix water extract for muscarinic receptor-3 inhibition against overactive bladder” (Frontiers in Pharmacology, 2022).
≈ marks a conversion by molar mass, not a printed value. Read-outs that look alike come from different tables or passages of the source.

Legend:
[1] = biological target: T1, M3 receptor (carbachol-induced detrusor contraction) (Rattus norvegicus, UniProt P08483); experiment: Carbachol-induced bladder strip (detrusor) contraction, ex vivo organ bath; type: cell-based, spontaneously hypertensive rats (SHRs); conditions: for IC10 value / IC50: carbachol (10 μM)-induced detrusor contraction, Mean ± SEM, n = 3; for remaining activity at 100 µg/mL: 100 μg/ml; for inhibition at 100 µg/mL: read-out: inhibition rate at 100 μg/ml
T1 construct: the whole bladder was immediately isolated to prepare detrusor strips in Krebs’ solution; from tissue; host or cells: bladder detrusor strips / bladder sections of SHR
T1 sequence (P08483 whole entry): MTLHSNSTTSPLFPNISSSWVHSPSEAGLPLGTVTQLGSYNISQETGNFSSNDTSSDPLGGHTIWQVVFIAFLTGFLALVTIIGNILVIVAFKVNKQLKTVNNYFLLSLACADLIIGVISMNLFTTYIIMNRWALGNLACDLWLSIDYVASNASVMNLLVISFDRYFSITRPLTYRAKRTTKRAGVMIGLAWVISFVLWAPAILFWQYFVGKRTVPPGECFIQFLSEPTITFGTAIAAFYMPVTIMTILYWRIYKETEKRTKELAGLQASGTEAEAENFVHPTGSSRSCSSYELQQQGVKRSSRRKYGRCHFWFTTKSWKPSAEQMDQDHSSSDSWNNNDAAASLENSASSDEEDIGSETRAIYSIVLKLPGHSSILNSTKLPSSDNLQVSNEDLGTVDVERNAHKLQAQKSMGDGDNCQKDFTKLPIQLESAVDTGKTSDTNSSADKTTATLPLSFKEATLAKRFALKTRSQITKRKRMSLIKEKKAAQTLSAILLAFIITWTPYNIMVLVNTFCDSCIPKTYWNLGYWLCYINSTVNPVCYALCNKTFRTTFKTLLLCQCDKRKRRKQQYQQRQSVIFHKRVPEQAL
Method: SHRs were sacrificed with carbon dioxide, and the whole bladder was immediately isolated to prepare detrusor strips in Krebs’ solution. Then, the strips were placed in a PanLab organ bath (Harvard Apparatus, Holliston, Massachusetts, United States) full of bubbling Krebs’ solution at 37°C. After stimulation with high-potassium solution, the strips were washed with Krebs’ solution three times. When the strips were incubated in Krebs’ solution until the tension was set at about 1.5 g, 0.1% DMSO was added for a 10-min incubation as a control, and then the muscle strip was stimulated to shrink by adding muscarinic agonist carbachol (10 μM), which is used for determinization of M3 receptor function in the bladder strip ([Liang and Leung, 2012]). Between two stimulations, the strips were washed out and balanced for 15 min. The contraction force of the bladder strip was recorded. After the experiment, detrusor strips were collected, dried, and weighed for data normalization. Data were recorded and analyzed using LabChart software (version 8.0).
Detrusor strips were isolated from SHRs and placed in the organ bath as mentioned previously, and then inhibitory activities of different fractions at 100 μg/ml were tested under carbachol (10 μM)-stimulated detrusor contraction.

[2] = Urine metabolites after oral Gegen water extract, quantified by UPLC-MS/MS; type: in vivo, spontaneously hypertensive rats (SHRs); conditions: spontaneously hypertensive rat (SHR), 3-week treatment, Mean ± SEM; for concentration at 2 h: 2 h after last dose of Gegen water extract 300 mg/kg p.o., n = 8, read-out: Content in urine, 2 h; for concentration at 4 h: 4 h after last dose of Gegen water extract 300 mg/kg p.o., n = 8, read-out: Content in urine, 4 h; for concentration at 6 h: 6 h after last dose of Gegen water extract 300 mg/kg p.o., n = 8, read-out: Content in urine, 6 h; for concentration at 8 h: 8 h after last dose of Gegen water extract 300 mg/kg p.o., n = 8, read-out: Content in urine, 8 h
Method: Urine samples were collected into ice-cold 15-ml Falcon tubes every 2 h and up to a total of 8 h, and the tubes were cooled by ice to prevent bacteria proliferation and water evaporation during collection. […] The gradient profile was set as follows: 10-40% B from 0 to 11 min; and 40-80% B from 11 to 15 min. The parameters for mass spectrometry were as follows: capillary, 2.5 kV for negative mode; sampling cone, 34 V; source offset, 80 V; cone gas flow, 150 L/h; desolvation gas flow, 650 L/h; and desolvation temperature, 350°C. Samples were kept at 4°C in the sample manager, and the column was maintained at 40°C. […] The precision and accuracy of the quantitation were satisfied according to FDA Bioanalytical Method Validation Guidance for Industry. Total ion chromatograms including retention times and MRM masses are shown in Supplementary Figure S2.

[3] = cited from earlier work
[4] = biological target: BSA (Bos taurus, UniProt P02769); experiment: Thermal shift control in PBS containing BSA and glycerin; type: binding; conditions: 100 μg/ml; no M3 receptor protein; read-out: ΔTm in PBS solution containing BSA and glycerin
Chain of BSA (P02769 25-607): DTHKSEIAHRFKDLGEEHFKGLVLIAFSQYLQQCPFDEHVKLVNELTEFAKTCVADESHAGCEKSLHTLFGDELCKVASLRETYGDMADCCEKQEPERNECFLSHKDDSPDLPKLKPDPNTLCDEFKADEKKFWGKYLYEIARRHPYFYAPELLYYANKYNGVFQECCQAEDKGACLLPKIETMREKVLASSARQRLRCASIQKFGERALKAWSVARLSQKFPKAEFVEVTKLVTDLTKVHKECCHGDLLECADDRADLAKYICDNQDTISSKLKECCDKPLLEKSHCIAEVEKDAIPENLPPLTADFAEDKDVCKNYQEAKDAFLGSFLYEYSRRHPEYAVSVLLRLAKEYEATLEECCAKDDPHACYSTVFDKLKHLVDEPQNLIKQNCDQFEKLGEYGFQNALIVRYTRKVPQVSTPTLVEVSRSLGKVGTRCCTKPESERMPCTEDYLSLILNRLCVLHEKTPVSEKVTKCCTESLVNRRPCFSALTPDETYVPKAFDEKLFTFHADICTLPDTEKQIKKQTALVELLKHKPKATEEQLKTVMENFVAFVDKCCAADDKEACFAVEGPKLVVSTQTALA

[5] = biological target: T2, recombinant human M3 receptor (Homo sapiens, UniProt P20309); experiment: Thermal shift assay with recombinant human M3 receptor protein; type: binding; conditions: for binding to the human M3 receptor protein (verdict in words): thermal shift; for Tm value of the human M3 receptor protein: compound at 100 μg/ml, control (1% DMSO) 64.17 ± 0.37°C, n = 3
T2 construct: Full-length recombinant human M3 muscarinic acetylcholine receptor membrane preparation was provided by Millipore Co; purchased Millipore Co. (Merck KGaA, Darmstadt, Germany)
T2 sequence (P20309 whole entry): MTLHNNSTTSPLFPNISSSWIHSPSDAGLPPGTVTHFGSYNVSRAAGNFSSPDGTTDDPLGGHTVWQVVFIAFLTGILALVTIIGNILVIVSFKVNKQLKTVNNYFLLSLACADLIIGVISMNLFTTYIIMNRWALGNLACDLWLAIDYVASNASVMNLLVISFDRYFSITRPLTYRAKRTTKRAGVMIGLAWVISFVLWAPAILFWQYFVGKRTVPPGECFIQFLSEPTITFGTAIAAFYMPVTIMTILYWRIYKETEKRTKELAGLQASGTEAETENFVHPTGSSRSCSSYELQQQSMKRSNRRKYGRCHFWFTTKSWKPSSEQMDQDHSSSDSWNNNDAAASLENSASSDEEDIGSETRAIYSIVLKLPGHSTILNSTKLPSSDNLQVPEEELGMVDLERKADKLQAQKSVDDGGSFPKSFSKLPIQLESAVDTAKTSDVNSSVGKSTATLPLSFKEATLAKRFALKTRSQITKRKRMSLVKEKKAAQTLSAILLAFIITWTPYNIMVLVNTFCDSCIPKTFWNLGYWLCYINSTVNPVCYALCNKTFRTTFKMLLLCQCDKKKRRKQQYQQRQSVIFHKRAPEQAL
Method: A thermal shift assay was performed to measure the binding of ligands to a recombinant human M3 receptor as modified from the previous study ([Huynh and Partch, 2015]). Briefly, after optimization of protein and dye concentrations, the M3 receptor protein (0.025 mg/ml) was incubated with different concentrations of tested compounds (0–100 μg/ml in 1% DMSO) in an 18 μl volume of ice-cold PBS for 2 h. Then, SYPRO Orange protein stain (2 μl; 8x as the final concentration diluted from original 5000x with PBS) was added, and the melt curve was detected using the Applied Biosystems QuantStudio5 real-time PCR system under the following conditions: ramp speed, standard; excitation wavelength at 470 nm (Reporter: FAM), and emission wavelength at 586 nm (Quencher: TAMRA) with no passive reference; an initial 2-min hold at 25°C (ramp rate, 1.6°C/s), ramping up in increments of 0.05°C/s to a final temperature of 99°C. Melt temperatures (Tm) were calculated using Protein Thermal Shift software v.1.4 (Applied Biosystems, Thermo, United States). The change in melt temperature (ΔTm) was equal to the Tm of control (1% DMSO) subtracted from the Tm of the tested compound. ΔTm higher than 2°C was considered a positive interaction between the ligand and receptor protein ([Huynh and Partch, 2015]).

[6] = biological target: T1, M3 receptor (carbachol-induced detrusor contraction); experiment: Carbachol-induced bladder strip (detrusor) contraction, ex vivo organ bath; type: cell-based, spontaneously hypertensive rats (SHRs); conditions: read-out: inhibition at 12.5 μg/ml
[7] = pure compounds at 100 μg/ml, carbachol 10 μM

COc1ccc(-c2coc3cc(O)cc(O)c3c2=O)cc1 [Biochanin A, Biochanin A (genistein 4′-methyl ether)]
IC10 value [1]: 34.94 ± 6.75 µg/mL (≈ 123 µM) | IC50 [1]: 201 µM | concentration at 2 h ([2]; urine, oral): 26 ± 7 ng/mL | concentration at 4 h ([2]; urine, oral): 85 ± 57 ng/mL | concentration at 6 h ([2]; urine, oral): 30 ± 14 ng/mL | concentration at 8 h ([2]; urine, oral): 28 ± 5 ng/mL

O=c1c(-c2ccc(O)cc2)coc2c([C@@H]3O[C@H](CO[C@@H]4OC[C@](O)(CO)[C@H]4O)[C@@H](O)[C@H](O)[C@H]3O)c(O)ccc12 [Puerarin apioside, puerarin apioside]
remaining activity at 100 µg/mL ([1]; carbachol 10 μM): 89.3 ± 9.2% | inhibition at 100 µg/mL [1, 7]: 10.7 ± 9.24%

O=c1c(-c2ccc(O)cc2)coc2cc(O)ccc12 [Daidzein, daidzein]
IC10 value [1]: 8.15 ± 1.85 µg/mL (≈ 32.1 µM) | IC50 [1]: 158 µM | concentration at 2 h ([2]; urine, oral): 4400 ± 1000 ng/mL | concentration at 4 h ([2]; urine, oral): 15900 ± 9300 ng/mL | concentration at 6 h ([2]; urine, oral): 8130 ± 2660 ng/mL | concentration at 8 h ([2]; urine, oral): 14400 ± 5140 ng/mL | plasma AUC ([3]; rat, in vivo, po): 4·4 μg·h/mL | ΔTm at 100 µg/mL [4]: ~0.58 °C | ΔTm at 100 µg/mL ([5]; 100 μg/ml, against 1% DMSO, ΔTm higher than 2°C = positive interaction): 2.12 °C | binding to the human M3 receptor protein (verdict in words) ([5]; 100 μg/ml): positively bound | EC50 ([5]; 3.125–100 μg/ml, at 65.3°C, read-out: EC50 of concentration-dependent increase of Tm (converted)): 62.1 µM | Tm value of the human M3 receptor protein [5]: 66.29 ± 0.38 °C | inhibition at 12.5 µg/mL [6]: 15%

O=c1c(-c2ccc(O)c(O)c2)coc2c([C@@H]3O[C@H](CO)[C@@H](O)[C@H](O)[C@H]3O)c(O)ccc12 [3′-Hydroxypuerarin, 3′-hydroxypuerarin]
remaining activity at 100 µg/mL ([1]; carbachol 10 μM): 82.3 ± 1.8% | inhibition at 100 µg/mL [1, 7]: 17.8 ± 1.75%

O=c1c(-c2ccc(O)cc2)coc2cc(O)cc(O)c12 [Genistein, Genistein (5-hydroxyl daidzein)]
concentration at 2 h ([2]; in vivo): 517 ± 138 ng/mL | concentration at 4 h ([2]; in vivo): 1410 ± 1000 ng/mL | concentration at 6 h ([2]; in vivo): 327 ± 98 ng/mL | concentration at 8 h ([2]; in vivo): 342 ± 35 ng/mL

O=c1c(-c2ccc(O)cc2)coc2cc(O[C@@H]3O[C@H](CO)[C@@H](O)[C@H](O)[C@H]3O)cc(O)c12 [Genistin, genistin (genistein-7-O-glucoside)]
IC50 [1]: > 231 µM

O=c1c(-c2ccc(O)cc2)coc2c([C@@H]3O[C@H](CO)[C@@H](O)[C@H](O)[C@H]3O)c(O)ccc12 [Puerarin, puerarin (daidzein-8-C-glucoside)]
IC10 value [1]: 2.90 ± 2.11 µg/mL (≈ 6.96 µM) | inhibition at 100 µg/mL [1]: 33.8 ± 3.05% | concentration at 2 h ([2]; urine, oral): 6380 ± 897 ng/mL | concentration at 4 h ([2]; urine, oral): 10300 ± 2480 ng/mL | concentration at 6 h ([2]; urine, oral): 3310 ± 325 ng/mL | concentration at 8 h ([2]; urine, oral): 2210 ± 164 ng/mL | plasma AUC ([3]; after oral administration of Gegen water extract, ref Wei et al., 2020): 15.1 µg·h/mL | binding to the human M3 receptor protein (verdict in words) ([5]; 100 μg/ml): very weak binding | Tm value of the human M3 receptor protein [5]: 64.92 ± 0.03 °C
